How the values were obtained:
[1] = Surface tension, hanging drop tensiometer; format: physicochemical; settings: 25 °C; for Surface tension (γ) at CMC: estimated error 1 mNm^−1; for CMC obtained by surface tension (CMCγ): estimated error 10%; for Area per molecule (Am): Gibbs adsorption isotherm using n = 1, estimated error 15%
Procedure: Surface tension was measured at 25 °C using a homemade hanging drop tensiometer. Samples were hanged from a straight-cut Teflon tube and the size and shape were obtained from pictures as a function of time. Surface tension was obtained from fitting the drop profile to the appropriate Young-Laplace equations. See Sorrenti et al. for more details. From a concentrated clear solution, successive dilutions were made to cover the adequate range of surface tension changes. The surface tension of […]14 was measured in three pH conditions: (a) unbuffered, using water as solvent, (b) buffered at pH = 2, using 10 mM HCl solution to prepare the concentrated sample and their dilutions and (c) buffered at pH = 12, using 10 mM […] to prepare the concentrated solution and their dilutions.

[2] = tested on: HaCaT cell line; experiment: NRU cell viability assay; format: cell-based, human; settings: 24 h
Procedure: (§1) The murine Swiss albino fibroblast (3T3), the squamous carcinoma (A431), the immortal human keratinocyte (HaCaT) and the human epithelial carcinoma (HeLa) cell lines were obtained from Celltec UB. Cells were grown in Dulbecco’s Modified Eagle’s Medium (DMEM) (4.5 g/L glucose) supplemented with 10% (v/v) fetal bovine serum (FBS), 1% (v/v) L-glutamine solution (200 mM) and 1% (v/v) penicillin-streptomycin solution (10,000 U/mL penicillin and 10 mg/mL streptomycin) at 37 °C and 5% CO2 (CO2 Incubator Nuaire, Plymouth, MN, USA). All the biological materials were purchased from Lonza (Verviers, Belgium). Cells were cultured in 75 cm^2 culture flasks (TPP, Trasadingen, Switzerland) and were routinely split using trypsin-EDTA (ethylenediaminetetraacetate) solution (170,000 U/L trypsin and 0.2 g/L EDTA) (Lonza, Verviers, Belgium) when cells are approximately 80% confluent. 3T3 and HaCaT cells (1 × 10^5 cells/ mL) and HeLa and A431 cells (5 × 10^4 cells/mL) were grown at the defined densities into the central 60 wells of a 96-well plate. Cells were incubated for 24 h under 5% CO2 at 37 °C. […] Agitation, determination of the absorbance of the extracted solution and effect of each treatment in comparison with control cells were analogous of those described in the case of the MTT method.

[3] = tested on: HeLa cell line; experiment: MTT cell viability assay; format: cell-based, human; settings: 24 h
Procedure: The murine Swiss albino fibroblast (3T3), the squamous carcinoma (A431), the immortal human keratinocyte (HaCaT) and the human epithelial carcinoma (HeLa) cell lines were obtained from Celltec UB. Cells were grown in Dulbecco’s Modified Eagle’s Medium (DMEM) (4.5 g/L glucose) supplemented with 10% (v/v) fetal bovine serum (FBS), 1% (v/v) L-glutamine solution (200 mM) and 1% (v/v) penicillin-streptomycin solution (10,000 U/mL penicillin and 10 mg/mL streptomycin) at 37 °C and 5% CO2 (CO2 Incubator Nuaire, Plymouth, MN, USA). All the biological materials were purchased from Lonza (Verviers, Belgium). Cells were cultured in 75 cm^2 culture flasks (TPP, Trasadingen, Switzerland) and were routinely split using trypsin-EDTA (ethylenediaminetetraacetate) solution (170,000 U/L trypsin and 0.2 g/L EDTA) (Lonza, Verviers, Belgium) when cells are approximately 80% confluent.
3T3 and HaCaT cells (1 × 10^5 cells/ mL) and HeLa and A431 cells (5 × 10^4 cells/mL) were grown at the defined densities into the central 60 wells of a 96-well plate. Cells were incubated for 24 h under 5% CO2 at 37 °C. Then, the spent medium was removed, and cells were incubated during 24 h with the corresponding surfactant systems, previously diluted 50% (v/v) in DMEM medium supplemented with 5% FBS (100 µL).
In this assay, living cells reduce the yellow tetrazolium salt, 2,5-Diphenyl-3, -(4,5-dimethyl-2-thiazolyl) tetrazolium bromide (MTT), to insoluble purple formazan crystals. After the cells were incubated for 24 h with the corresponding systems, the medium was removed and 100 µL (5 mg/mL) of 2,5-Diphenyl-3,-(4,5-dimethyl-2-thiazolyl) tetrazolium bromide (MTT) (Sigma–Aldrich, St. Louis, MO, USA) in phosphate-buffered saline (PBS) (Lonza, Verviers, Belgium), diluted 1:10 in culture medium without phenol red and absence of FBS (Lonza, Verviers, Belgium), was added to the cells. The plates were incubated for 3 h, after which the medium was removed. Thereafter, 100 µL of dimethylsulfoxide (DMSO) (Sigma–Aldrich, St. Louis, MO, USA) was added to each well to dissolve the purple formazan crystals. Plates were then placed in a microtiter-plate shaker for 5 min at room temperature to help the total dissolution. Then, the absorbance of the resulting solutions was measured at 550 nm using a Bio-Rad 550 microplate reader (Hercules, California, USA). The effect of each treatment was calculated as the percentage of tetrazolium salt reduction by viable cells against the untreated cell control (cells with medium only).

[4] = design: method as in PMID 17319702; settings: cited from earlier work
[5] = tested on: A431 cell line; experiment: NRU cell viability assay; format: cell-based; settings: Homo sapiens, A-431, 24 h
Procedure: as §1

[6] = tested on: HeLa cell line; experiment: NRU cell viability assay; format: cell-based; settings: Homo sapiens, 24 h
Procedure: as §1

[7] = 10 mM NaCl CO2 saturated solution

| Compound | Surface tension (γ) at CMC [1] [mNm^−1] | CMC obtained by surface tension (CMCγ) [1] | Area per molecule (Am) [1] [nm^2] | IC50 [2] [µM] | IC50 [3] [µM] | Concentration at which surface tension stabilizes [4, 7] | Limiting surface tension [4, 7] | Surface tension at CMC ([4]; basic conditions) | CMC ([4]; basic media) [mM] | IC50 ([2]; Homo sapiens) [µM] | IC50 [5] [µM] | IC50 [6] [µM] | IC50 ([3]; Homo sapiens) [µM] |
| --- | --- | --- | --- | --- | --- | --- | --- | --- | --- | --- | --- | --- | --- |
| N(π),N(τ)-bis(methyl)-L-Histidine tetradecyl amide [DMHNHC14] | 33 | 5.2 mM | 0.57 | 45.7 | 3.37 |  |  |  |  |  |  |  |  |
| CCCCCCCCCCCCCC(=O)O [Sodium myristate, sodium myristate] | 24 | 5.0 ^7 mM | 1.0 |  |  | around 0.3 mM | about 25 mNm^−1 | about 40 mNm^−1 | 3 | > 50 | > 50 | > 50 | > 50 |

From publication PMC7727793, “Aggregation Behavior, Antibacterial Activity and Biocompatibility of Catanionic Assemblies Based on Amino Acid-Derived Surfactants” (International Journal of Molecular Sciences, 2020)
